The values that follow are results of earlier work, collected in PMC5752104 (Bioorganic & medicinal chemistry, 2017).

The target of one series is GPR55 (Homo sapiens, UniProt Q9Y2T6).

The structures appear in SMILES notation.

Sequence of GPR55 (Q9Y2T6 whole entry): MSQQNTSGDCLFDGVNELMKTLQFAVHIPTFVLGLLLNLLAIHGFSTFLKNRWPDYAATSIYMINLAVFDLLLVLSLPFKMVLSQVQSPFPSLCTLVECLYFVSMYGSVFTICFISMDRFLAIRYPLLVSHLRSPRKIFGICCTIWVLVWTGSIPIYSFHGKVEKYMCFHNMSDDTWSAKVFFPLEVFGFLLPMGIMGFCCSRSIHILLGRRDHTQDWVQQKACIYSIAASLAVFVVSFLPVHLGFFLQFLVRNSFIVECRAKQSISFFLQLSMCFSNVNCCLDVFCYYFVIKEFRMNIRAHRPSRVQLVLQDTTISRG
Sequence of GPR55 (P32121 whole entry partner): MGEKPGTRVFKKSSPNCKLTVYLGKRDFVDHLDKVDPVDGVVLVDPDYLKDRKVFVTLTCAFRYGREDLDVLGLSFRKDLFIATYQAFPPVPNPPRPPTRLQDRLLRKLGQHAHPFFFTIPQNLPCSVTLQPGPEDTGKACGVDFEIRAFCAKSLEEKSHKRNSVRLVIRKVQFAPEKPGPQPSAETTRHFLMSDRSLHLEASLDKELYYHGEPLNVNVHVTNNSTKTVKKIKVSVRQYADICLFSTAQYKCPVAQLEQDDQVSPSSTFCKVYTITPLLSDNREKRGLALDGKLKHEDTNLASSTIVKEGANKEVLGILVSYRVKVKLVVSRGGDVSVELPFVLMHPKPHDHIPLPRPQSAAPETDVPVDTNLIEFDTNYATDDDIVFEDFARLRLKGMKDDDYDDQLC

For the molecule `COc1ccccc1/C=C/C(=O)NC(=S)Nc1ccc(S(=O)(=O)N(C)c2ccccc2)cc1` [6fv, (E)-3-(2-Methoxyphenyl)-N-((4-(N-methyl-N-phenylsulfamoyl)phenyl)carbamothioyl)acrylamide], the “activity at CB1” value in the series on CB1 was “no activity”. The “activity at CB2” value with CB2 is listed as “no activity”. Further, the “activity at GPR35” value in the series on GPR35 was “no activity”.
Take `Cc1c(C(=O)NN2CCCCC2)nn(-c2ccc(Cl)cc2Cl)c1-c1ccc(I)cc1` [AM251]: on GPR55, the “effect at GPR55” value was “strongly activates GPR55”.
In the case of `CCCCCCC(C)(C)c1ccc([C@@H]2C[C@H](O)CC[C@H]2CCCO)c(O)c1` [CP55940], on GPR55, the “effect at GPR55” value was “acts as an antagonist”.
